Test results published in patent US20080227764A1 (published 2008).

Key:
Male Wistar rats = experiment: Sedation: resting time in open field activity monitor; type: in vivo, rat
[1] = system: diabetic neuropathic rats; experiment: Streptozotocin diabetic neuropathic pain model (Example 1): noxious electrical current, tail flick latency, paw pressure; type: in vivo, rat
[2] = system: diabetic neuropathic male Wistar rats; experiment: Paw pressure (Randall Selitto) anti-nociception in rats with diabetic neuropathy (Example 2); type: in vivo, rat
[3] = system: rats with experimental insulin-dependent diabetes mellitus; details: intravenous morphine; diabetic rats; cited from earlier work

CC(=O)OCC(=O)[C@H]1CC[C@H]2[C@@H]3CC[C@H]4C[C@H](O)CC[C@]4(C)[C@H]3C(=O)C[C@]12C [alphadolone acetate, 21-acetoxy-3α-hydroxy-5α-pregnane-11,20-dione]
resting times compared with saline controls (Male Wistar rats; alphadolone acetate 60 mg/kg intraperitoneally): decreased resting times | resting times compared with saline controls (Male Wistar rats; alphadolone acetate doses less than 100 mg/kg intraperitoneally, 30 minutes): did not increase resting times | anti-nociceptive action in diabetic neuropathic pain (ECT, TFL, paw pressure) ([1]; alphadolone acetate 6 mg/kg ip given alone): minimally responsive | anti-nociception to paw pressure ([2]; alphadolone acetate 1.0 mg/kg given alone): ineffective | reversal of the allodynia and hyperalgesia to paw pressure ([2]; alphadolone acetate 10 mg/kg intraperitoneally (maximum dose), given alone): 80% | anti-nociceptive effects, dose response ([2]; alphadolone acetate given alone intraperitoneally, FIG. 9): dose related anti-nociceptive effects | potency in rats with diabetic neuropathy compared with normal weight matched rats ([2]; alphadolone acetate given alone, the two dose response curves overlay each other): same potency

CN1CC[C@]23c4c5ccc(O)c4O[C@H]2[C@@H](O)C=C[C@H]3[C@H]1C5 [morphine]
doses inducing dose-dependent anti-nociceptive effect relative to normal rats [3]: twice as high

COc1ccc2c3c1O[C@H]1C(=O)CC[C@@]4(O)[C@@H](C2)N(C)CC[C@]314 [oxycodone, reference compound]
resting times compared with saline controls (Male Wistar rats; oxycodone 0.25 and 0.125 mg/kg intraperitoneally): decreased resting times | resting times compared with saline controls (Male Wistar rats; oxycodone doses less than 1.0 mg/kg intraperitoneally, 30 minutes): did not increase resting times | anti-nociceptive action in diabetic neuropathic pain (ECT, TFL, paw pressure) ([1]; oxycodone 250 μg/kg given alone): minimally responsive
